Read-outs that look alike come from different tables or passages of the source.
Columns and labels:
[1] = Membrane filtration permeability, unsoiled system; format: physicochemical
Excerpt: (§1) A Membrex Benchmark GX (Fairfield, N.J.) lab-scale rotating membrane filtration unit was used for all permeability studies. Membrane cartridges were made of polyacrylonitrile with a 0.05 um pore size (Part #0567, Osmonics Corp., Minnetonka, Minn.).
(§2) One to two liters of the aqueous alkaline solution of the present invention in its diluted form, usually including 0.15% surfactant and 0.05% potassium carbonate, was placed in both the customer (or initial) and holding tanks (appropriately sized glass beakers). For experiments with soil, oil was added at a 1% level to both tanks. The tanks were heated with magnetic stirring on hotplates to either 140° F. or 100° F. The temperature was maintained throughout each experiment with RTD temperature probes interfaced to the hotplates. The rotation rate of the membrane filtration unit was 3000 RPM. Material from the holding tank was pumped into the membrane filtration unit at a flow of 600 ml/min. The outlet pressure was adjusted to achieve a 5 psi pressure drop across the membrane, resulting in permeate flows of approximately 100-300 ml/min depending on the soil and the operating temperature. The transfer line from the customer tank to the holding tank was adjusted to equal the permeate flow rate in order to maintain a constant level in both customer and holding tank. One cycle or turnover is defined to be the time at which the cumulative volume of permeate equals the initial volume of the customer tank. Permeate samples were collected at 1, 5 and/or 10 cycles.
(§3) A 0.05 um PAN membrane was used in the filtration.
(§4) Surfactant levels in permeate samples were determined by TOC (unsoiled studies only) and by HPLC/ELSD.
(§5) A sample of the initial cleaning solution was collected before addition of oil (if added) and before starting membrane operation. This initial cleaning soultion sample is defined to be the 100% permeable concentration. Serial dilutions of the 100% permeable sample were made to obtain calibration samples for the HPLC analysis. Point-to-point calibration curves were used for HPLC quantitation due to the non-linear nature of the ELSD response. For TOC analysis the initial cleaning solution sample was used for the single point calibration. For surfactants with multiple surfactant oligomers, individual oligomer permeability and overall surfactant permeability were determined. The overall surfactant permeability was calculated from the average of the oligomer results, except for Surfonic® L108/85-5 where the result for major C8 hydrophobe was used.

[2] = Membrane filtration permeability, Pennzoil 80W90 soiled system; format: physicochemical; details: 1% oil, 140° F., HPLC
Excerpt: as §1, §2, §3, §4, §5
(§6) Example 3 was performed in the same way as Example 2 but in the presence of soil. The method described in Example 2 was followed in Example 3. The permeability performance of surfactants in soiled systems is of interest given the desire to separate the aqueous cleaning materials from soil. Two oils were evaluated in this study: Cosmoline® 1102 and Pennzoil® 80W90 oil.

[3] = Surfactant Log P estimate by reversed phase HPLC
Experimental: Reversed phase HPLC was performed on all samples. Samples were filtered through Gelman 0.45 um PVDF filters and analyzed. Almost all separations were utilized the following conditions:
Column: Supelcosil LC-18 column, 15 cm×4.6 mm, 5 um particle size (Supelco, Bellefonte, Pa.).
Flow: 1 ml/min. Temperature: ambient Injection Volume: 50 ul Mobile Phase A: 70:30 methanol: water (v+v) with 10 mM ammonium acetate.
Mobile Phase B: 100% methanol.
The ELSD was operated at 40° C., with a nitrogen flow rate of 1.8 l/min. A Chromeleon Chromatography Data system (Dionex Corp. Sunnyvale, Calif.) was used to collect and process the HPLC data.
A reversed phase HPLC method was used to estimate surfactant Log P values. The HPLC capacity factor, k′, for each material was determined according to the equation: […]
The column void time was determined from the elution time of unretained salt. […] (FIG. 6).
The reversed phase HPLC separation used herein separates primarily based on the size of the hydrophobe. […] The peak maximum retention time was used to determine the Log P estimate for surfactants with either the narrow or the broad single peak profiles. […] (FIG. 7). […] In addition, the retention time of the individual hydrophobe peaks was used to calculate Log P values for these oligomers.

[4] = 1% aqueous solutions, Table H; cited from earlier work
[5] = known values used for calibration; cited from earlier work
[6] = Membrane filtration permeability, Cosmoline 1102 soiled system; format: physicochemical; details: 1% oil, 140° F., HPLC
Excerpt: as §1, §2, §3, §4, §5, §6
The permeability of four surfactants was evaluated at 100° F. in the presence of 1% Cosmoline® 1102 oil. […] The results are listed in Table N and are plotted in FIG. 26 with a comparison to the 140° F. results.

[7] = unsoiled, Cycle 5, 140° F., HPLC (Table M)
[8] = single peak or individual hydrophobe peak, alkyl benzene standards
[9] = unsoiled, Cycle 1, 0.05 um PAN membrane
[10] = unsoiled, Cycle 5, 0.05 um PAN membrane
[11] = unsoiled, Cycle 10, 0.05 um PAN membrane

Row | Compound | Permeability, Pennzoil80W90-Cycle 5 [2] [%] | Cloud Point (° C.) [4] | % Permeability ([1]; not told) [%] | LogP, HPLC estimate [3] | Permeability, Cosmoline 1102-Cycle 5 [6] [%] | further results
1 | CCCCCCCCCCCC[N+](C)(C)[O-] [Barlox ® 12, dodecyl dimethyl amine oxide] | 63 | None |  |  |  | % Permeability [1, 7]: 80%; chromatographic logP [3]: 4.5
2 | CCc1ccccc1 [ethyl benzene] |  |  |  |  |  | Log P of alkylbenzene retention time standards [5]: 3.13
3 | CCCCCCc1ccccc1 [hexyl benzene] |  |  |  |  |  | Log P of alkylbenzene retention time standards [5]: 5.24
4 | CCCCCCCCc1ccccc1 [octyl benzene] |  |  |  |  |  | Log P of alkylbenzene retention time standards [5]: 6.30
5 | C8 mono-glucoside [Glucopon ® 425/C8] | 97 |  | 104 | 2.5 | 74 | 
6 | CCCCCCCCCC[N+](C)(C)[O-] [Mackamine ® C10, linear decyl dimethyl amine oxide] |  | None |  |  | 53 | LogP, HPLC estimate [3, 8]: 3.4
7 | CCCCCCCC[N+](C)(C)[O-] [Mackamine ® C8, linear octyl dimethyl amine oxide] | 95 | None |  |  | 95 | % Permeability (HPLC) [1, 9]: 104%; % Permeability (TOC) [1, 9]: 101%; % Permeability (HPLC) [1, 10]: 105%; % Permeability (TOC) [1, 10]: 108%; % Permeability [1, 7]: 105%; % Permeability (HPLC) [1, 11]: 102%; % Permeability (TOC) [1, 11]: 117%; LogP, HPLC estimate [3, 8]: 2.5; Permeability, Cosmoline 1102-Cycle 1 [6]: 94%; Permeability, Cosmoline 1102-Cycle 10 [6]: 99%
8 | C10 mono-glucoside [Glucopon ® 425/C10] | 77 |  | 87 | 3.2 | 22 | 
9 | C14 mono-glucoside [Glucopon ® 425/C14] | 39 |  | 35 | 5.2 | <20 | 
10 | cocamidopropyl betaine ammonium salt [Foamtaine ® CAB-A] |  | None |  | 3.6 | 9 | 
11 | C12 mono-glucoside [Glucopon ® 425/C12] | 49 |  | 44 | 4.3 | <20 | 

— patent publication US20040014624A1, “Recylable cleaning compositions” (priority 2003, published 2004)
